{"source": "patent US10434129B2", "about": "“Composition to enhance HDL cholesterol and to decrease intima-media thickening in animals and humans and a method for its preparation” (ARJUNA NATURAL LTD, priority 2003, dated 2019)", "origin": "cited, not measured here", "key": {"[1]": {"system": "rat vascular smooth muscle cells (VSMC)"}, "[2]": {"system": "Human umbilical vein endothelial cells (HUVEC)", "details": "HUVEC incubated with ox-LDL"}}}
{"compound": "O=C(O[C@@H]1O[C@@H]2COC(=O)c3cc(O)c(O)c(O)c3-c3c(cc(O)c(O)c3O)C(=O)O[C@H]([C@H]1O)[C@@H]2O)c1cc(O)c(O)c(O)c1", "note": "[corilagin]", "values": [{"measurement": "VSMC proliferation induced by ox-LDL", "setting": "[1]", "result": "inhibited VSMC proliferation"}, {"measurement": "Malondialdehyde (MDA) in the culture media", "setting": "[2]", "result": "reduce MDA"}, {"measurement": "adhesion of HUVEC to monocytes", "setting": "[2]; then monocytes", "result": "prevented HUVEC from adhering to monocytes"}]}
